{"source": "patent US8980311B2", "about": "“Liposome-mediated ligation” (University of Georgia Research Foundation, Inc., priority 2006, dated 2015)", "details": "phosphate buffer containing 6 M guanidinium-hydrochloride", "note": "Where a SMILES comes first, the peptide text is derived from it. The star is where a group is joined. Propyl(2R-PamO,3-PamO) = CCCCCCCCCCCCCCCC(=O)OC[C@H](C*)OC(=O)CCCCCCCCCCCCCCC; Palmitoyl = CCCCCCCCCCCCCCCC(=O)*; SBn = c1ccc(CS*)cc1"}
{"smiles": "CCCCCCCCCCCCCCCC(=O)N[C@@H](CSC[C@@H](COC(=O)CCCCCCCCCCCCCCC)OC(=O)CCCCCCCCCCCCCCC)C(=O)N[C@@H](CO)C(=O)N[C@@H](CCCCN)C(=O)N[C@@H](CCCCN)C(=O)N[C@@H](CCCCN)C(=O)N[C@@H](CCCCN)C(=O)NCC(=O)SCc1ccccc1", "note": "[Compound 6] (Palmitoyl-C(Propyl(2R-PamO,3-PamO))SKKKKG-SBn)", "values": [{"measurement": "solubility", "value": "poor solubility"}]}
